Source: US9556179B2 (BRISTOL-MYERS SQUIBB COMPANY, priority 2012, dated 2017)
Counter-ions that a name gives are not always drawn.

Experiments:
[1] = biological target: CK1ε (Homo sapiens (Human), UniProt P49674); experiment: CK1ε kinase assay (Caliper LABCHIP electrophoretic separation of fluoresceinated peptide substrate and product); assay type: biochemical; details: 200 pM enzyme, 50 μM ATP, 22 hours at room temperature
Outline: (§1)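 Kinase reactions ran 22 h at room temperature, were stopped with EDTA, and phosphorylated product was separated electrophoretically from unphosphorylated fluoresceinated peptide. Compounds were tested at eleven concentrations from 10 mM DMSO stocks. IC50 by non-linear regression.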

[2] = biological target: CK1δ (Homo sapiens (Human), UniProt P48730); experiment: CK1δ kinase assay (Caliper LABCHIP electrophoretic separation of fluoresceinated peptide substrate and product); assay type: biochemical; details: 200 pM enzyme, 50 μM ATP, 22 hours at room temperature
Sequence of CK1δ (P48730 whole entry): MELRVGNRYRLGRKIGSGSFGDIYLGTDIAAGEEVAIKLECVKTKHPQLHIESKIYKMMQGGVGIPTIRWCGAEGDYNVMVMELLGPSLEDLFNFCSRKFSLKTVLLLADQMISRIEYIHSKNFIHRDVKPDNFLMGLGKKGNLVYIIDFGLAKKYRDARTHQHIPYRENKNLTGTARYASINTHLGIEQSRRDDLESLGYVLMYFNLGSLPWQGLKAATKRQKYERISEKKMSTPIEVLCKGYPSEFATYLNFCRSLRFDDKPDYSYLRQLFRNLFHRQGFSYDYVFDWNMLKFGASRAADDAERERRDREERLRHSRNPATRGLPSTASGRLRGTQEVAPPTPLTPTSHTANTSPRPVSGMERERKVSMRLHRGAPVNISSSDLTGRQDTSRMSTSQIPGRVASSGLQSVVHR
Outline: as §1

Sequence of CK1ε (P49674 whole entry): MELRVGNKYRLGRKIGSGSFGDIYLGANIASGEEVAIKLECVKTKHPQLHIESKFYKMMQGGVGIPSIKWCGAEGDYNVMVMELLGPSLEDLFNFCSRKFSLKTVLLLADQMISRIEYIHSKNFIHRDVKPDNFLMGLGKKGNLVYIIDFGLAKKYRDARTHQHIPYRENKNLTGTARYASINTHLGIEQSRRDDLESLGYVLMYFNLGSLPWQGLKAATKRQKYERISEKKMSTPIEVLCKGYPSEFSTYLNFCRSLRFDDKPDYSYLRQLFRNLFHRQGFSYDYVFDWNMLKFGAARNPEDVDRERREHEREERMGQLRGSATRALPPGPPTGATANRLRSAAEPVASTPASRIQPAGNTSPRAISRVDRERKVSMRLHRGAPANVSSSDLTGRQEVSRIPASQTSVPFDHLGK

SMILES	IC50 [1]	IC50 [2]
Cn1nccc1C(=O)Nc1cn2nc(-c3c(-c4ccc(F)cc4)nc4ccccn34)ccc2n1 [Compound 180, N-(6-(2-(4-fluorophenyl)imidazo[1,2-a]pyridin-3-yl)imidazo[1,2-b]pyridazin-2-yl)-1-methyl-1H-pyrazole-5-carboxamide]	12.1 nM	1.6 nM
Cn1ccc(C(=O)Nc2cn3nc(-c4c(-c5ccc(F)cc5)nc5ccccn45)ccc3n2)n1 [Compound 181, N-(6-(2-(4-fluorophenyl)imidazo[1,2-a]pyridin-3-yl)imidazo[1,2-b]pyridazin-2-yl)-1-methyl-1H-pyrazole-3-carboxamide]	10.8 nM	4.01 nM
O=C(Nc1cn2nc(-c3c(-c4ccc(F)cc4)nc4ccccn34)ccc2n1)c1cncnc1 [Compound 182, N-(6-(2-(4-fluorophenyl)imidazo[1,2-a]pyridin-3-yl)imidazo[1,2-b]pyridazin-2-yl)-5-pyrimidinecarboxamide]	6.13 nM	0.53 nM
O=C(Nc1cn2nc(-c3c(-c4ccc(F)cc4)nc4ccccn34)ccc2n1)c1csc(-c2cccnc2)n1 [Compound 188, N-(6-(2-(4-fluorophenyl)imidazo[1,2-a]pyridin-3-yl)imidazo[1,2-b]pyridazin-2-yl)-2-(pyridin-3-yl)thiazole-4-carboxamide]	9.8 nM	3.56 nM
COc1ccc(-c2nc(C(=O)Nc3cn4nc(-c5c(-c6ccc(F)cc6)nc6ccccn56)ccc4n3)cs2)cc1 [Compound 189, N-(6-(2-(4-fluorophenyl)imidazo[1,2-a]pyridin-3-yl)imidazo[1,2-b]pyridazin-2-yl)-2-(4-methoxyphenyl) thiazole-4-carboxamide, 3 HCl]	32.1 nM	17.1 nM

Further compounds by falling IC50 [1], results first:

IC50 [1]	IC50 [2]	SMILES
77.2 nM	7.53 nM	O=C(Nc1cn2nc(-c3c(-c4ccc(F)cc4)nc4ccccn34)ccc2n1)c1nc2ccccc2s1 [Compound 184, N-(6-(2-(4-fluorophenyl)imidazo[1,2-a]pyridin-3-yl)imidazo[1,2-b]pyridazin-2-yl)-1,3-benzothiazole-2-carboxamide]
30.3 nM	10.5 nM	O=C(Nc1cn2nc(-c3c(-c4ccc(F)cc4)nc4ccccn34)ccc2n1)c1csc(-c2ccncc2)n1 [Compound 187, N-(6-(2-(4-fluorophenyl)imidazo[1,2-a]pyridin-3-yl)imidazo[1,2-b]pyridazin-2-yl)-2-(pyridin-4-yl)thiazole-4-carboxamide]
11.4 nM	10.3 nM	O=C(Nc1cn2nc(-c3c(-c4ccc(F)cc4)nc4ccccn34)ccc2n1)c1ccncc1 [Compound 186, N-(6-(2-(4-fluorophenyl)imidazo[1,2-a]pyridin-3-yl)imidazo[1,2-b]pyridazin-2-yl)isonicotinamide]
6.05 nM	4.77 nM	N#Cc1ccc(-c2nc(C(F)(F)F)c(C(=O)Nc3cn4nc(-c5c(-c6ccc(F)cc6)nc6ccccn56)ccc4n3)s2)cc1 [Compound 190, 2-(4-cyanophenyl)-N-(6-(2-(4-fluorophenyl)imidazo [1,2-a]pyridin-3-yl)imidazo [1,2-b]pyridazin-2-yl)-4-(trifluoromethyl)thiazole-5-carboxamide]
3.82 nM	0.207 nM	N#Cc1ccc(C(=O)Nc2cn3nc(-c4c(-c5ccc(F)cc5)nc5ccccn45)ccc3n2)cn1 [Compound 183, 6-cyano-N-(6-(2-(4-fluorophenyl)imidazo[1,2-a]pyridin-3-yl)imidazo[1,2-b]pyridazin-2-yl)nicotinamide]
3.02 nM	2.11 nM	O=C(Nc1cn2nc(-c3c(-c4ccc(F)cc4)nc4ccccn34)ccc2n1)c1ccccc1 [Compound 191, N-(6-(2-(4-fluorophenyl)imidazo[1,2-a]pyridin-3-yl)imidazo[1,2-b]pyridazin-2-yl)benzamide]
1.06 nM	0.096 nM	CC(C)(C)C(=O)Nc1cc(C(=O)Nc2cn3nc(-c4c(-c5ccc(F)cc5)nc5ccccn45)ccc3n2)ccn1 [Compound 192, N-(6-(2-(4-fluorophenyl)imidazo[1,2-a]pyridin-3-yl)imidazo[1,2-b]pyridazin-2-yl)-2-pivalamidoisonicotinamide]
